Experimental data from US6534048B1, “Topical clonidine preparation” (Curatek Pharmaceuticals Holding, Inc., priority 1999, dated 2003).

Key:
[1] = system: patients with postherpetic neuralgia; settings: cited from earlier work

For `Clc1cccc(Cl)c1NC1=NCCN1` [clonidine, N-(2,6-dichlorophenyl)-4,5-dihydro-1H-imidazol-2-amine], the side effects ([1]; single oral 0.2 mg, at the time of peak clonidine levels) is listed as “troublesome levels of sedation and dizziness”, the pain relief ([1]; single oral doses of 0.2 mg, 40 patients) is listed as “greater than that produced by doses of placebo or 120 mg codeine” and the side effects (eight volunteers, 3 mg or 6 mg per day for 14 consecutive days) is listed as “no side effects were observed”. For the same molecule, the mean plasma concentrations (topical daily doses of 3 mg and 6 mg clonidine) was “not more than 0.2 nanograms/ml”.
